Results as given in patent US10370410B2, “Cancer cell-targeting peptide and use thereof” (KYUNGPOOK NATIONAL UNIVERSITY INDUSTRY-ACADEMIC COOPERATION …, priority 2015, dated 2019).
Ends that are not written are not given here. FPI774 = near-infrared fluorescent reagent (label)

Columns and labels:
[1] = system: K-ras transgenic tumor cells; assay: Phage library screening and sequence analysis of phage clones; format: in vivo, mouse; settings: phage clones from 4th and 5th screening rounds, sequence analysis
Description: To screen peptides having specificity to K-ras transgenic tumor cells in the T7 CX7C phage library prepared above, a random peptide phage library (1×10^11 pfu) were injected into a K-ras^LA2 transgenic mouse via the tail vein.
After 15 minutes, the tumor was excised from the lungs of the K-ras^LA2 transgenic mouse, finely ground, and added to a DMEM medium to prepare a cell suspension, which was then passed through a70-M filter (DAKO, Carpinteria, Calif., USA). The phages bound to the tumor were reacted with 1% NP-40 for 10 minutes for separation. Afterwards, the separated phages were recovered by treatment with cultured BL21 host bacteria. The phages that were recovered by the BL21 host bacteria and amplified were injected into a K-ras^LA2 transgenic mouse via the tail vein. Such a round of the screening of phage library was repeated five times. […] At the final 5th round, the multiplicative […] of the phage clones increased 162 times the first round. Afterwards, from the 4th round and the 5th rounds, a total of 49 clones were randomly selected for the sequencing.
DNA inserts of each of the 49 phage clones collected in Example 2-2 were sequenced by an automated DNA sequencer (Genotech Inc., Daegeon and SolGent Inc. Daegu) using a 96 pill primer (New England Biolabs). To find amino acid motifs shared between the common sequences or peptides, amino acid sequences deduced based on the nucleotide sequences were was aligned by using the Clustal W program. To find proteins having significant homology, NCBI BLAST search was performed with respect to peptide sequences. As a result of the sequence analysis of the peptides, four phage clones with high affinity for the K-ras transgenic tumor cells were confirmed, and the peptide sequences thereof were as follows: CKSRKDGAC (4R-3, SEQ ID NO: 1), CMPKRPSSC (4R-16, SEQ ID NO: 2), CRGTAEG (4R-21, SEQ ID NO: 3), and CRQTKN (5R-7, SEQ ID NO: 4).

[2] = system: tumor of K-ras^LA2 transgenic mouse; assay: Binding capability of phage clones to tumor (phage titer); format: in vivo; settings: phage clone expressing the peptide administered into K-ras^LA2 transgenic mouse; FIG. 4B
Description: The phage clones that express each of the peptides were administered into the K-ras^LA2 transgenic mouse, and bound to tumor, and a titer of the phage clones was measured.

[3] = system: tumors of the K-ras^LA2 transgenic mouse; assay: Near-infrared fluorescence imaging of FPI774-labeled tumor-targeting peptides; format: in vivo; settings: FPI774-labeled peptide, tail vein, 4 hours, FIG. 5
Description: To validate whether the peptides prepared in <Example 2-5> in the present invention were specifically transferred to the tumor cells of the K-ras^LA2 transgenic mouse, a control peptide and a peptide labeled with FPI774 and having SEQ ID NO: 1 to SEQ ID NO: 4 were injected into the K-ras^LA2 transgenic mouse and a normal mouse via the tail vein of each mouse. After 4 hours, the mice were sacrificed, and each organ thereof was extracted for the near-infrared fluorescence imaging using the eXplore Optix system (ART Inc, Montreal, Canada).

[4] = system: tumors of K-ras^LA2 transgenic mouse; assay: Target transfer capability of FPI774-CRQTKN peptide (near-infrared organ imaging); format: in vivo; settings: tail vein, 4 hours; for fluorescence of FPI774 in the lungs: FIG. 6A
Description: To confirm the binding capability of the CRQTKN peptide (SEQ ID NO: 4) to the K-ras tumors, the FPI774-CRQTKN (SEQ ID NO: 13) peptide, which is a peptide labeled with a near-infrared fluorescent reagent FPI774, and a control peptide were administered into a K-ras^LA2 transgenic mouse and a normal mouse via the tail vein of each mouse.
After 4 hours, the mice were scarified, and each organ thereof was extracted for the near-infrared fluorescence imaging using the eXplore Optix system (ART Inc, Montreal, Canada).

Substance: CMPKRPSSC (4R-16 peptide) [tumor-targeting peptide … identified by phage library screening]
- affinity of phage clones for the K-ras transgenic tumor cells [1]: high affinity

Substance: CKSRKDGAC (4R-3 peptide) [tumor-targeting peptide … identified by phage library screening; tested as phage clone and as FPI774-labeled peptide]
- affinity of phage clones for the K-ras transgenic tumor cells [1]: high affinity
- binding capability of phage clone to the tumor (titer) [2]: greatest binding capability

Substance: CRQTKN: tumor-targeting peptide CRQTKN identified by phage library screening (5R-7 peptide)
- affinity of phage clones for the K-ras transgenic tumor cells [1]: high affinity
- transfer to the tumors (near-infrared fluorescence) [3]: most strongly transferred

Substance: CRGTAEG (4R-21 peptide) [tumor-targeting peptide CRGTAEG identified by phage library screening]
- affinity of phage clones for the K-ras transgenic tumor cells [1]: high affinity

Substance: FPI774-CRQTKN: CRQTKN peptide labeled with a near-infrared fluorescent reagent FPI774
- fluorescence of FPI774 in the lungs ([4]; K-ras^LA2 transgenic mouse): strongly expressed
- fluorescence of FPI774 in the lungs ([4]; normal mouse): not expressed
- fluorescence of FPI774 in organs other than the lungs (kidney and liver) ([4]; FIG. 6B): not observed in general
